Test results: article PMC12217461 (Antimicrobial Agents and Chemotherapy, 2025)

Columns and labels:
Type in all cases: cell-based
[1] = tested on: E. coli IMP-14 Mutant 3 (N178S); experiment: MIC broth microdilution, recombinant E. coli; conditions: Escherichia coli; IMP-14 N178S; TAN/XER fixed at 4 µg/mL, XER 8 µg/mL in MEM-XER; read-out: Minimal inhibitory concentration
From the text: (§1) Genes encoding different acquired IMP-like enzymes suspected to be resistant to XER (blaIMP-6, blaIMP-7, blaIMP-10, blaIMP-14, blaIMP-26, blaIMP-34, and blaIMP-59) were amplified by PCR, and corresponding amplicons were cloned into plasmid pUCP24 and expressed in E. coli TOP10. The following recombinant E. coli strains producing IMP-1, IMP-4, IMP-19, and NDM-1 were used from a previous study ([16]). […] For that purpose, a list of primers was designed and provided as Table S1. […] The nomenclature used in this study was according to the BBL sequence numbering ([52]).
(§2) To assess the inhibitory potency of XER, susceptibility testing was performed by broth microdilution method, determining the minimal inhibitory concentrations (MICs) of different antibiotics or antibiotic plus β-lactamase inhibitor combinations, including cefepime (FEP), imipenem (IPM), meropenem (MEM), and their combinations with XER (FEP-XER, IPM-XER, and MEM-XER). All data obtained with XER-based combinations were compared with data with TAN-based combinations, FEP-TAN, IPM-TAN, and MEM-TAN ([16]). FEP was purchased from Sigma-Aldrich (Saint-Louis, USA), whereas MEM was from HuiChem (Shanghai, China). […] MICs were determined in triplicate in cation-adjusted Mueller-Hinton (MH) broth (Bio-Rad, Marnes-la-Coquette, France) according to the CLSI guidelines ([53]). The results were interpreted according to the decrease in MIC value for the same antibiotic or combination of the corresponding recombinant strain producing the MBL enzyme. […] In a recent phase I clinical evaluation, XER was combined with cefiderocol. However, as this latter β-lactam substrate is known to be poorly hydrolyzed by IMP enzymes, it was not considered for the evaluation of XER inhibitory activity in this study. Instead, carbapenems were used as a substrate to evaluate the β-lactamase IMP activity in the presence or absence of XER and TAN, as it was deemed more specific for the IMP carbapenemase activity.

[2] = tested on: E. coli IMP-14 Mutant 2 (H174N); experiment: MIC broth microdilution, recombinant E. coli; conditions: Escherichia coli; IMP-14 H174N; TAN/XER fixed at 4 µg/mL, XER 8 µg/mL in MEM-XER; read-out: Minimal inhibitory concentration
From the text: as §1, §2

[3] = tested on: E. coli IMP-14 Mutant 5 (Y233N); experiment: MIC broth microdilution, recombinant E. coli; conditions: Escherichia coli; IMP-14 Y233N; TAN/XER fixed at 4 µg/mL, XER 8 µg/mL in MEM-XER; read-out: Minimal inhibitory concentration
From the text: as §1, §2

[4] = tested on: E. coli IMP-14 Mutant 1 (S65G); experiment: MIC broth microdilution, recombinant E. coli; conditions: Escherichia coli; IMP-14 S65G; TAN/XER fixed at 4 µg/mL, XER 8 µg/mL in MEM-XER; read-out: Minimal inhibitory concentration
From the text: as §1, §2

[5] = tested on: Klebsiella pneumoniae SMART 878; experiment: microbe, parasite or virus in culture; conditions: for MIC: Klebsiella pneumoniae, SMART878, read-out: Minimal inhibitory concentration
Experimental: (§3) Most isolates and their respective β-lactamase content were characterized by whole-genome sequencing.
as §2

[6] = tested on: C. freundii SMART 315; experiment: microbe, parasite or virus in culture; conditions: Citrobacter freundii, SMART315; IMP-4, CTX-M-9; TAN/XER fixed at 4 µg/mL, XER 8 µg/mL in MEM-XER; read-out: Minimal inhibitory concentration
Experimental: as §3, §2

[7] = tested on: Citrobacter freundii SMART 958; experiment: microbe, parasite or virus in culture; conditions: SMART958, IMP-1, OXA-142, TAN/XER fixed at 4 µg/mL, XER 8 µg/mL in MEM-XER, read-out: Minimal inhibitory concentration
Experimental: as §3, §2

[8] = tested on: Enterobacter hormaechei subsp. steigerwaltii SMART 1276; experiment: microbe, parasite or virus in culture; conditions: read-out: Minimal inhibitory concentration
Experimental: as §3, §2

[9] = tested on: Pseudomonas aeruginosa C7; experiment: microbe, parasite or virus in culture; conditions: IMP-7, TAN/XER fixed at 4 µg/mL, XER 8 µg/mL in MEM-XER, read-out: Minimal inhibitory concentration
Experimental: as §3, §2

[10] = tested on: Pseudomonas aeruginosa PA13; experiment: microbe, parasite or virus in culture; conditions: IMP-15, TAN/XER fixed at 4 µg/mL, XER 8 µg/mL in MEM-XER, read-out: Minimal inhibitory concentration
Experimental: as §3, §2

[11] = tested on: Serratia marcescens SM1; experiment: microbe, parasite or virus in culture; conditions: IMP-11, TAN/XER fixed at 4 µg/mL, XER 8 µg/mL in MEM-XER, read-out: Minimal inhibitory concentration
Experimental: as §3, §2

[12] = tested on: Escherichia coli E. coli 7 IMP; experiment: microbe, parasite or virus in culture; conditions: E.COLI7IMP, read-out: Minimal inhibitory concentration
Experimental: as §3, §2

[13] = tested on: Pseudomonas aeruginosa CC02-010; experiment: microbe, parasite or virus in culture; conditions: CC02010, IMP-7, TAN/XER fixed at 4 µg/mL, XER 8 µg/mL in MEM-XER, read-out: Minimal inhibitory concentration
Experimental: as §3, §2

[14] = tested on: Klebsiella pneumoniae SMART 1131; experiment: microbe, parasite or virus in culture; conditions: SMART1131, IMP-6, CTX-M-2, TAN/XER fixed at 4 µg/mL, XER 8 µg/mL in MEM-XER, read-out: Minimal inhibitory concentration
Experimental: as §3, §2

[15] = tested on: Klebsiella pneumoniae SMART 1133; experiment: microbe, parasite or virus in culture; conditions: SMART1133, IMP-1, CTX-M-2, TAN/XER fixed at 4 µg/mL, XER 8 µg/mL in MEM-XER, read-out: Minimal inhibitory concentration
Experimental: as §3, §2

[16] = tested on: Escherichia coli AZ 1677; experiment: microbe, parasite or virus in culture; conditions: AZ1677, IMP-59, TEM-1, TAN/XER fixed at 4 µg/mL, XER 8 µg/mL in MEM-XER, read-out: Minimal inhibitory concentration
Experimental: as §3, §2

[17] = tested on: Enterobacter xiangfangensis SMART 409; experiment: microbe, parasite or virus in culture; conditions: Enterobacter hormaechei, SMART409, read-out: Minimal inhibitory concentration
Experimental: as §3, §2

[18] = tested on: Pseudomonas aeruginosa PA16; experiment: microbe, parasite or virus in culture; conditions: IMP-29, TAN/XER fixed at 4 µg/mL, XER 8 µg/mL in MEM-XER, read-out: Minimal inhibitory concentration
Experimental: as §3, §2

| Structure (SMILES) | MIC [1] [µg/mL] | MIC [2] [µg/mL] | MIC [3] [µg/mL] | MIC [4] [µg/mL] | MIC [5] [µg/mL] | MIC [6] [µg/mL] | MIC [7] [µg/mL] | MIC [8] [µg/mL] | MIC [9] [µg/mL] | MIC [10] [µg/mL] | MIC [11] [µg/mL] | MIC [12] [µg/mL] | MIC [13] [µg/mL] | MIC [14] [µg/mL] | MIC [15] [µg/mL] | MIC [16] [µg/mL] | MIC [17] [µg/mL] | MIC [18] [µg/mL] | Minimal inhibitory concentration ([5]; IMP-26, CTX-M-15, OXA-1, TEM-1 like, TAN/XER fixed at 4 µg/mL, XER 8 µg/mL in MEM-XER) [µg/mL] |
| --- | --- | --- | --- | --- | --- | --- | --- | --- | --- | --- | --- | --- | --- | --- | --- | --- | --- | --- | --- |
| CO/N=C(\C(=O)N[C@@H]1C(=O)N2C(C(=O)[O-])=C(C[N+]3(C)CCCC3)CS[C@H]12)c1csc(N)n1 [FEP, cefepime] | 128 | 64 | 16 | 128 | 256 | 16 | 32 | > 256 | > 256 | 128 | 4 | > 256 | > 256 | 64 | > 256 | 8 | 4 | 16 |  |
| C[C@@H](O)[C@H]1C(=O)N2C(C(=O)O)=C(S[C@@H]3CN[C@H](C(=O)N(C)C)C3)[C@H](C)[C@H]12 [MEM, meropenem] | 8 | 4 | 1 | 8 | 4 | 2 | 4 | 2 | 256 | 64 | 2 | 1 | 256 | 8 | 64 | 0.5 | ≤ 0.125 | 32 | 1 |
| C[C@@H](O)[C@H]1C(=O)N2C(C(=O)O)=C(SCCN=CN)C[C@H]12 [IPM, imipenem] | 2 | 2 | 32 | 8 | ≤ 0.25 | ≤ 0.25 | 0.5 | 0.5 | 128 | 256 | ≤ 0.25 | 0.5 | 128 | ≤ 0.25 | 128 | ≤ 0.25 | ≤ 0.25 | 16 |  |
